The record followed here is ChEMBL document CHEMBL5241112, “Insights into the recent progress in the medicinal chemistry of pyranopyrimidine analogs” (RSC Med Chem, 2022).

In brackets after ≈: the same amount, converted by molar mass.

Assay [1] deals with T1, Alpha-glucosidase (Saccharomyces cerevisiae S288c, UniProt P53341+P38158+P07265). Nature of the assay: Inhibition of Saccharomyces cerevisiae alpha-glucosidase assessed as decrease in release of p-nitrophenol using pNPG as substrate incubated for 10 mins by spectroscopic analysis. The assay is classed as protein assay.
Assay [2] concerns the target T2, Free fatty acid receptor 3 (Homo sapiens, UniProt O14843).
T2 sequence (O14843 whole entry): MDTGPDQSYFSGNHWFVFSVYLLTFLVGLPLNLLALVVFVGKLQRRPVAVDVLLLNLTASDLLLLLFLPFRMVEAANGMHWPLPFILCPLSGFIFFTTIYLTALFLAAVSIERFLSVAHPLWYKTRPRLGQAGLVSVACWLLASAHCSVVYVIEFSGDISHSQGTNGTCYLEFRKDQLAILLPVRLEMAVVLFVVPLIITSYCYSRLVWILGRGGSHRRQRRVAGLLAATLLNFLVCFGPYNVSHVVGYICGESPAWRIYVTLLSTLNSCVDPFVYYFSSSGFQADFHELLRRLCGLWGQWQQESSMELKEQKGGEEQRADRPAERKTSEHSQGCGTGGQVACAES
Nature of the assay: Agonist activity at FFA3 (unknown origin) expressed in human Flp-In-293 cells assessed as inhibition of forskolin-stimulated cAMP accumulation incubated for 30 mins by Lance cAMP assay. The assay is classed as cell-based. For orientation: Changes in cAMP serve as a functional read-out for many G protein-coupled receptors.

The target in assay [3] is Hydroxycarboxylic acid receptor 2 (Homo sapiens, UniProt Q8TDS4). The assay is described as follows: Agonist activity at human HCA2 expressed in human Flp-In-293 cells assessed as inhibition of forskolin-stimulated cAMP accumulation incubated for 30 mins by Lance cAMP assay. Type of assay: cell-based.
In assay [4] the test system is Staphylococcus aureus. Nature of the assay: Antibacterial activity against Staphylococcus aureus MTCC 96 assessed as bacterial growth inhibition incubated for 24 hrs by broth microdilution method. The assay is classed as functional.
The test system of assay [5] is Staphylococcus aureus. The assay is described as follows: Antibacterial activity against Staphylococcus aureus MLS-16 MTCC 2940 assessed as bacterial growth inhibition incubated for 24 hrs by broth microdilution method. Type of assay: functional. For orientation: Broth dilution looks for growth in wells or tubes with falling amounts of substance.
The subject of assay [6] is Staphylococcus aureus. Nature of the assay: Antibacterial activity against Staphylococcus aureus NCTC-7447 assessed as diameter of inhibition zone incubated for 24 hrs by disc diffusion method. Type of assay: functional. Background: A growth-free zone around the sample is the usual read-out of agar diffusion tests.
For the next assay, the system named is Bacillus cereus. Nature of the assay: Antibacterial activity against Bacillus cereus ATCC-14579 assessed as diameter of inhibition zone incubated for 24 hrs by disc diffusion method. Type of assay: functional.
The next assay relates to Serratia marcescens. Nature of the assay: Antibacterial activity against Serratia marcescens IMRU-70 assessed as diameter of inhibition zone incubated for 24 hrs by disc diffusion method. Type of assay: functional.
A further assay concerns Proteus mirabilis. Nature of the assay: Antibacterial activity against Proteus mirabilis NTCC-289 assessed as diameter of inhibition zone incubated for 24 hrs by disc diffusion method. Type of assay: functional.
The test system of another assay is Aspergillus ochraceus. Nature of the assay: Antifungal activity against Aspergillus ochraceus AUCC-230 assessed as diameter of inhibition zone incubated for 24 hrs by disc diffusion method. Type of assay: functional.
A further assay concerns Penicillium chrysogenum. Nature of the assay: Antifungal activity against Penicillium chrysogenum AUCC-530 assessed as diameter of inhibition zone incubated for 24 hrs by disc diffusion method. Type of assay: functional.
The test system of another assay is Escherichia coli. The assay is described as follows: Antibacterial activity against Escherichia coli MTCC 723 assessed as diameter of inhibition zone at 0.1 mg/ml incubated for 24 hrs by agar well diffusion method. The assay is classed as functional. To be noted: read-out: DIZ.
Assay [7] deals with T1, Alpha-glucosidase. The assay is described as follows: Inhibition of Saccharomyces cerevisiae alpha-glucosidase preincubated for 5 mins followed by PNP-GLUC substrate addition and measured after 20 mins by spectroscopic analysis. The assay is classed as protein assay.
In the next assay the target is Albumin (Bos taurus, UniProt P02769). Nature of the assay: […] bovine serum albumin denaturation incubated for 23 mins by UV-Visible spectrophotometry.
Assay [8] is described as follows: Inhibition of porcine pancreatic alpha-amylase preincubated for 10 mins followed by substrate starch addition and measured after 10 mins by colorimetric analysis. Also noted: species or system Sus scrofa.
Another assay relates to HepG2. Nature of the assay: Anticancer activity against human HepG2 cells assessed as reduction in cell viability incubated for 48 hrs by MTT assay. The assay is classed as functional, cell-based. Particulars: HepG2, 48 h.
A further assay has as its system Klebsiella pneumoniae. Nature of the assay: Antimicrobial activity against Klebsiella pneumoniae ATCC 15380 assessed as diameter of inhibition zone at 20 mg/ml incubated for 24 hrs by disk diffusion method. Type of assay: functional. To be noted: read-out: DIZ.
The subject of a further assay is A549. The assay is described as follows: Anticancer activity against human A549 cells assessed as reduction in cell viability incubated for 24 hrs by MTT assay. The assay is classed as functional, cell-based. Particulars: A549, 24 h.

Chain of Hydroxycarboxylic acid receptor 2 (Q8TDS4 whole entry): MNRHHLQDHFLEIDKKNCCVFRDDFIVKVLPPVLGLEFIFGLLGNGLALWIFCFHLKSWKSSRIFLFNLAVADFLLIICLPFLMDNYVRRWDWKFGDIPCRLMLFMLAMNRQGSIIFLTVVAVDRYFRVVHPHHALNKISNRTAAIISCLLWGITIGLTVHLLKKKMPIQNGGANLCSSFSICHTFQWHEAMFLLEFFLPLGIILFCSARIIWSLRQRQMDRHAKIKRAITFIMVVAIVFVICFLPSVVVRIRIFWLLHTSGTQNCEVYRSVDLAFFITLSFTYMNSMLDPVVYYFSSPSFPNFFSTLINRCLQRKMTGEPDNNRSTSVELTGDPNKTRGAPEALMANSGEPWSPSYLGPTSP
Chain of Albumin (P02769 whole entry): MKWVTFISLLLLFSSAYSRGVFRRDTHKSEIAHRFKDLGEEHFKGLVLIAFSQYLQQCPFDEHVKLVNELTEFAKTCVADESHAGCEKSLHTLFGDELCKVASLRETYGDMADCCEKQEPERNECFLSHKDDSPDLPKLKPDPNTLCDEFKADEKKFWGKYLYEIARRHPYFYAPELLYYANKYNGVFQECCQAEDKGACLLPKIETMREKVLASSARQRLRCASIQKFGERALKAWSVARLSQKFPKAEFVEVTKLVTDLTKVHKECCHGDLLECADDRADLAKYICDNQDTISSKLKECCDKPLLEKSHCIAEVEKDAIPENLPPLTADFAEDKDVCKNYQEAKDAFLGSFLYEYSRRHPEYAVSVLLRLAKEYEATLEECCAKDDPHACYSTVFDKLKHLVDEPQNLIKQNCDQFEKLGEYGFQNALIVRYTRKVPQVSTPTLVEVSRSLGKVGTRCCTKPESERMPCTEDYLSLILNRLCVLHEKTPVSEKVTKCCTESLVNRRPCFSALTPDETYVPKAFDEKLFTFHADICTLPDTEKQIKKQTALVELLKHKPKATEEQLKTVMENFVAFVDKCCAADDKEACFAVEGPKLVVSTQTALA

Regarding `COc1cc(/C=C/C(=O)CC(=O)/C=C/c2ccc(O)c(OC)c2)ccc1O` [CURCUMIN], the IC50 at Alpha-glucosidase [1] came out at 44.8 µM.
As for `O=c1cc(CCCCCl)c2c(=O)[nH]c(=S)[nH]c2o1`, the EC50 in [2] worked out at 0.22 µM; in [3], 0.051 µM.
Consider `Cc1cc2c(c(=O)o1)C(c1ccccc1)c1c(Nc3cccc([N+](=O)[O-])c3)ncnc1O2` (centres undefined), for which the MIC in the assay on Staphylococcus aureus [4] turned out to be 7.8 µg/mL (≈ 18.2 µM); in the assay on Staphylococcus aureus [5], 15.6 µg/mL (≈ 36.4 µM).
Regarding `COc1cc(/C=C/C(=O)C2=C(/C=C/c3ccc(O)c(OC)c3)Oc3[nH]c(=O)[nH]c(=O)c3C2c2cccc([N+](=O)[O-])c2)ccc1O` (centres undefined), the IC50 at Alpha-glucosidase [1] worked out at 9.7 µM.
For the molecule `O=c1oc2ccccc2c2c1C(c1ccc(Cl)cc1)c1c(ncn3nc(CCl)nc13)O2` (centres undefined), the “diameter of the inhibition zone (DIZ)” value with Staphylococcus aureus [6] is given as 18 mm; in the assay with Bacillus cereus it was 19 mm; in the assay on Serratia marcescens, 21 mm; in the assay on Proteus mirabilis, 21 mm; with Aspergillus ochraceus, 15 mm; in the assay on Penicillium chrysogenum, 13 mm.
`CCCCc1cc(=O)oc2[nH]c(=O)[nH]c(=O)c12`: the EC50 in assay [2] is 0.22 µM.
For the molecule `CCOC(=O)n1c(=O)nc2c3c(ncn21)Oc1c(c(=O)oc2ccccc12)C3c1ccc(Cl)cc1` (centres undefined), the “diameter of the inhibition zone (DIZ)” value with Staphylococcus aureus [6] is 18 mm; in the assay with Bacillus cereus it was 19 mm; in the assay on Serratia marcescens, 21 mm; in the assay with Proteus mirabilis, 21 mm; in the assay on Aspergillus ochraceus, 15 mm; in the assay on Penicillium chrysogenum it was 13 mm.
For the molecule `O=C(C1=C(c2ccccc2O)Oc2[nH]c(=S)[nH]c(=O)c2C1c1ccccc1)N1CCCCC1` (centres undefined), in the assay on Escherichia coli, the zone of inhibition at 100 µg/mL stood at 13.1 mm. Moreover, the IC50 against Alpha-glucosidase [7] is 7745 µM; at Albumin, 19.9 µM; in assay [8], 22.1 µM.
For the molecule `O=C1CC(c2ccc(O)cc2)c2c([nH]c(=O)[nH]c2=O)O1` (centres undefined), in the assay on HepG2, the IC50 is 8.2 µM.
As for `COc1cc(/C=C/C(=O)C2=C(/C=C/c3ccc(O)c(OC)c3)Oc3[nH]c(=O)[nH]c(=O)c3C2c2c[nH]c3ccccc23)ccc1O` (centres undefined), the IC50 on Alpha-glucosidase [1] is 35.3 µM.
Turning to `Cc1ccc(C2C(C#N)=C(N)Oc3[nH]c(=O)[nH]c(=O)c32)o1` (centres undefined), in the assay with Klebsiella pneumoniae, the zone of inhibition at 20000 µg/mL was determined as 16 mm.
Regarding `COc1ccc(C2CC(=O)Oc3[nH]c(=O)[nH]c(=O)c32)cc1` (centres undefined), the IC50 with HepG2 turned out to be 10.6 µM.
For `C1=COc2ncncc2C1`, the zone of inhibition at 100 µg/mL in the assay with Escherichia coli was 13.1 mm.
For the molecule `O=c1[nH]c(=O)c2c(CCCCCl)cc(=O)oc2[nH]1`, in assay [3], the EC50 was 0.051 µM.
Turning to `N#CCc1nc2c3c(ncn2n1)Oc1c(c(=O)oc2ccccc12)C3c1ccc(Cl)cc1` (centres undefined), the “diameter of the inhibition zone (DIZ)” value in the assay on Staphylococcus aureus [6] is reported as 18 mm; with Bacillus cereus, 19 mm; with Serratia marcescens, 21 mm; with Proteus mirabilis it was 21 mm; with Aspergillus ochraceus, 15 mm; with Penicillium chrysogenum it was 13 mm.
As to `CCOC(=O)C1=C(C)Oc2nc(C)n(Cc3cn(-c4ccc(OC)cc4[N+](=O)[O-])nn3)c(=O)c2C1c1ccccc1` (centres undefined), in the assay with A549, the IC50 is 5.76 µM.
`Cc1cc2c(c(=O)o1)C(c1ccccc1)c1c(Nc3ccccc3)ncnc1O2` (centres undefined): the MIC with Staphylococcus aureus [5] came out at 15.6 µg/mL (≈ 40.7 µM).
Consider `CCOC(=O)C1=C(C)Oc2nc(C)n(Cc3cn(-c4ccc([N+](=O)[O-])cc4)nn3)c(=O)c2C1c1cccs1` (centres undefined), for which the IC50 in the assay on A549 is 1.85 µM.
As to `CCOC(=O)C1=C(C)Oc2nc(C)n(Cc3cn(-c4ccc(C(C)=O)cc4)nn3)c(=O)c2C1c1ccccc1` (centres undefined), the IC50 in the assay with A549 came out at 6.74 µM.

A word on the IC50: it is the concentration at which inhibition is half-maximal. A word on the EC50: it is the midpoint of the concentration-response curve. In general, MIC refers to the least concentration at which growth counts as inhibited.
